Experimental data from patent US20240376411A1, “IMPROVED PERFUME COMPOSITIONS COMPRISING SULFUR-CONTAINING PRO-FRAGRANCE COMPOUNDS” (FIRMENICH SA, priority 2021, published 2024).

Tests used:
[1] = logP above 4 (octanol-water partition coefficient); settings: Yes/No
[2] = Sensorial evaluation (hydrogen sulfide smell) of perfume compositions upon 1 and 2 weeks of storage at 50° C.; type: physicochemical; settings: for amount in the perfume composition that does not lead to an unpleasant hydrogen sulfide smell upon storage: conclusion from Tables 2 to 4, storage at 50° C.
Source text: (§1) To the first perfume composition, a perfumery raw material that promotes the formation of hydrogen sulfide ((−)-(2E)-2-ethyl-4-[(1R)-2,2,3-trimethyl-3-cyclopenten-1-yl]-2-buten-1-ol) has been added at various amounts (5 wt. %, 10 wt. %, 20 wt. %, 30 wt. %, and 40 wt. %, respectively, based on the total weight of the perfume composition). For each amount, it has been tested whether a hydrogen sulfide malodor could be perceived upon storage of the final perfume composition for 1 and 2 weeks, respectively, at 50° C.
as §1, with “Likewise, to” for “To”, “second” for “first”, “((+/−)-3-methyl-5-phenyl-1-pentanol)” for “((−)-(2E)-2-ethyl-4-[(1R)-2,2,3-trimethyl-3-cyclopenten-1-yl]-2-buten-1-ol)”
as §1, with “Likewise, to” for “To”, “third” for “first”, “((+/−)-3,7-dimethyl-6-octen-1-ol)” for “((−)-(2E)-2-ethyl-4-[(1R)-2,2,3-trimethyl-3-cyclopenten-1-yl]-2-buten-1-ol)”

[3] = 5 wt. % of the raw material in the perfume composition, even after 2 weeks of storage
[4] = 10 wt. % of the raw material in the perfume composition, even after 2 weeks of storage
[5] = above 20 wt. % of the raw material, after 1 week of storage

| logP > 4 [1] | amount in the perfume composition that does not lead to an unpleasant hydrogen sulfide smell upon storage [2] | SMILES | unpleasant hydrogen sulfide smell [2, 3] | unpleasant hydrogen sulfide smell [2, 4] | unpleasant hydrogen sulfide smell [2, 5] | unpleasant hydrogen sulfide smell ([2]; at 20 wt. % (and above) of the raw material, only after 1 week of storage at 50° C.) |
| --- | --- | --- | --- | --- | --- | --- |
| No | up to 19 wt. % | CC(C)=CCCC(C)CCO (racemic) [(+/−)-3,7-dimethyl-6-octen-1-ol] | no unpleasant hydrogen sulfide smell could be perceived | no unpleasant hydrogen sulfide smell could be perceived | unpleasant hydrogen sulfide smell was perceived | – |
| No | up to 19 wt. % | CC(CCO)CCc1ccccc1 (racemic) [(+/−)-3-methyl-5-phenyl-1-pentanol] | no unpleasant hydrogen sulfide smell could be perceived | no unpleasant hydrogen sulfide smell could be perceived | unpleasant hydrogen sulfide smell was perceived | – |
| Yes | up to 19 wt. % | CC/C(=C\C[C@H]1CC=C(C)C1(C)C)CO [(−)-(2E)-2-ethyl-4-[(1R)-2,2,3-trimethyl-3-cyclopenten-1-yl]-2-buten-1-ol] | no unpleasant hydrogen sulfide smell could be perceived | no unpleasant hydrogen sulfide smell could be perceived | – | unpleasant hydrogen sulfide smell was perceived |
